Reference: publication PMC5400620, “Preclinical therapeutic efficacy of a novel blood-brain barrier-penetrant dual PI3K/mTOR inhibitor with preferential response in PI3K/PTEN mutant glioma” (Oncotarget, 2017)

Columns and labels:
U87 GFP-LC3 cells = experiment: GFP-LC3 puncta detection (autophagy); assay type: cell-based, human; details: TMZ 125 μM, DS 100 nM, control 2%
Source text: To investigate the effects of DS, TMZ, or the TMZ/DS combination on autophagy in glioma cells, we transfected cells with GFP-LC3 constructs in addition to various drug treatment and control treatment regimens and examined the accumulation of punctate GFP-LC3 structures using fluorescence microscopy. During autophagy, LC3-II relocalizes to the autophagosomal membranes. Thus, the accumulation of GFP-LC3 puncta provides an effective way to detect autophagosomes. In control cells, GFP-LC3 punctate structures were not detected, but large numbers of GFP-LC3 punctate structures were found in cells treated with DS or TMZ (Figure 5C). […] Strikingly, the combination of DS and TMZ further induced autophagy in up to 50% of U87 cells.
U87 GFP-LC3 cells were analyzed by using a fluorescence microscope, and the percentage of cells displaying GFP-LC3-positive puncta was quantified by counting 5 random fields in 3 independent experiments.

U87 xenografts = experiment: U87 intracranial xenograft, DS, TMZ or DS + TMZ; details: U87 xenograft-bearing nude mice, TMZ 7.5 mg/kg
Description: Data are presented as the mean ± SD of three experiments. […] D, Kaplan–Meier survival curves comparing the treatments using log-rank tests. DS and TMZ were compared with the control group, and DS + TMZ was compared with the control group, TMZ alone, and DS alone. E, Representative H&E-stained whole brain sections at 4 weeks after treatment. […] The tissue sections were incubated with antibodies against Ki-67.
To evaluate the long-term antitumor effect of the TMZ/DS combination, we further assessed the effects of TMZ, DS, or the combination treatment on the survival rate of U87 xenograft-bearing nude mice, which indirectly reflected the survival of tumor-bearing mice relative to their tumor burden.

[1] = test system: glioma cell lines U87 and U251; experiment: cell viability with DS, TMZ and the combination; assay type: cell-based; details: Homo sapiens, U-251, TMZ 200 μM, DS 200 nM, alone or combined
Description: To investigate the ability of DS to modify the response of glioma cells to TMZ treatment, we evaluated the effects of TMZ (200 μM) alone, DS (200 nM) alone, and a combination of both TMZ and DS on the viability of the glioma cell lines U87 and U251 (Figure 5A).
The antiproliferative effect of DS on cells growing in culture was determined using the CellTiter-Blue (Promega, Madison, WI) viability assay. The mean drug concentration required to inhibit cell proliferation by 50% (IC50) compared with vehicle-treated controls was calculated using CalcuSyn Version 2.0 software (Great ShelfordCambridge, United Kingdom).

Cn1nnc2c(C(N)=O)ncn2c1=O [TMZ, temozolomide, reference compound]
cells with induced autophagy (GFP-LC3 puncta) (U87 GFP-LC3 cells): 10%
tumor burden compared with control groups (U87 xenografts): did not reduce the tumor burden
viability at 200 µM [1]: 93%
